Reference: US20150011740A1, “FLUORINE-CONTAINING WATER SOLUBLE PLATINUM COMPLEXES FOR TUMOR TREATMENT AND PROCESS OF PREPARING SAME” (GUDUI BIOPHARMA TECHNOLOGY INC., priority 2011, published 2015)
Read-outs that look alike come from different tables or passages of the source. Each block holds one compound with its values, some of them ahead of it.

What was measured:
[1] = buffer, pH 7
[2] = physchem; conditions: buffer, pH 7
[3] = Experiment-2: stability, half-life in phosphate buffer (PBS) pH 7 at room temperature; conditions: phosphate buffer (PBS) pH 7, room temperature
[4] = test system: L1210 tumor cells; assay: Experiment-3: antitumor efficacy in L1210 tumor-bearing CDF1 mice (ILS); format: in vivo; conditions: for Weight Changes: first day to seventh day
Experimental: In the following test, antitumor efficacy studies were performed using 8-9 weeks old female CDF1 mice, the average weight of the animal is 20-25 grams (The experimental animals were purchased from Vital River Laboratory Animal Technology Co. Ltd.). L1210 tumor cells (about 10^5 cells per mouse) were inoculated intraperitoneally. The fluorine-containing water-soluble platinum complexes were used to treat the tumor-bearing animals and the efficacy was compared with the clinical platinum antitumor drugs. […] Drugs were administered intraperitoneally on day 1 and day 4 after tumor cell transplantation. The number of experimental animals in each group was 6.
The increase in life span (ILS) is calculated as follows:
Wherein, St=the weighted median survival time of treated animals; Su=the weighted median survival time of untreated animals

[5] = background data of clinical drugs; cited from earlier work
[6] = Experiment-1: solubility in water at room temperature
[7] = 1.25 mg/Kg i.p. day 1 and day 4

half-life [1]: 48 h
Compound: cis-[trans-(1R,2R)-diaminocyclohexane] Pt (II) (1-O-D-mannoside-propane-3-fluoro-3,3-dicarboxylate) [Example 9]

Compound: [NH2][Pt]1([NH2])[O]C(=O)C(F)(COC2O[C@H](CO)[C@@H](O)[C@H](O)[C@H]2O)C(=O)[O]1 (stereo partly drawn) [Example 24, diamine platinum (II) (1-O-D-glucoside-ethane-2-fluoro-2,2-dicarboxylate)]
half-life [2]: 73 h

Compound: cis-[trans-(1R,2R)-diaminocyclohexane] Pt (II) (1-O-D-glucoside-propane-3-fluoro-3,3-dicarboxylate) [Example 1]
half-life [3]: 44 h

Compound: O=C1[O][Pt]2([NH][C@@H]3CCCC[C@H]3[NH]2)[O]C(=O)C1(F)COC1O[C@H](CO)[C@@H](O)[C@H](O)[C@H]1O (stereo partly drawn) [Example 23, cis-[trans-(1R,2R)-diaminocyclohexane]platinum (II) (1-O-D-glucoside-ethane-2-fluoro-2,2-dicarboxylate)]
half-life [2]: 89 h

Compound: O=C1[O][Pt]([NH]C2CC2)([NH]C2CC2)[O]C(=O)C1(F)CCOC1O[C@H](CO)[C@@H](O)[C@H](O)[C@H]1O (stereo partly drawn) [Example 17, dicyclopropylamino platinum (II) (1-O-D-glucoside-propane-3-fluoro-3,3-dicarboxylate)]
half-life [2]: 62 h

Compound: N.N.[Cl][Pt][Cl] [Cisplatin, cisplatin]
ILS [4, 7]: 36% | Survival Animals on Day 42 [4, 7]: 0/6 | ILS ([4]; 2.5 mg/Kg i.p. day 1 and day 4): 100% | Survival Animals on Day 42 ([4]; 2.5 mg/Kg i.p. day 1 and day 4): 0/6 | Survival Animals on Day 42 ([4]; 5.0 mg/Kg i.p. day 1 and day 4): 3/6

Compound: O=C1[O][Pt]2([NH][C@@H]3CCCC[C@H]3[NH]2)[O]C1=O [Oxaliplatin, oxaliplatin]
half-life [3]: 24 h

Compound: [NH2][Pt]1([NH2])[O]C(=O)C(F)(CCOC2O[C@H](CO)[C@@H](O)[C@H](O)[C@H]2O)C(=O)[O]1 (stereo partly drawn) [Example 3, diamine Pt (II) (1-O-D-glucoside-propane-3-fluoro-3,3-dicarboxylate)]
half-life [2]: 52 h

Compound: N.N.O=C([O-])C1(C(=O)[O-])CCC1.[Pt+2] [Carboplatin, carboplatin]
ILS ([4]; 20 mg/Kg i.p. day 1 and day 4): 10% | Survival Animals on Day 42 ([4]; 20 mg/Kg i.p. day 1 and day 4): 0/6 | Weight Changes ([4]; 20 mg/Kg i.p. day 1 and day 4): +0 g | ILS ([4]; 40 mg/Kg i.p. day 1 and day 4): 24% | Survival Animals on Day 42 ([4]; 40 mg/Kg i.p. day 1 and day 4): 0/6 | Weight Changes ([4]; 40 mg/Kg i.p. day 1 and day 4): -0.3 g | ILS ([4]; 80 mg/Kg i.p. day 1 and day 4): 55% | Survival Animals on Day 42 ([4]; 80 mg/Kg i.p. day 1 and day 4): 0/6 | Weight Changes ([4]; 80 mg/Kg i.p. day 1 and day 4): -1.2 g | Water Solubility [5]: 17.0 mg/mL | solubility [6]: 17.0 mg/1 mL H2O
